“And” between values parts separate entries of the source, which are not always exact repeats. Equal values may be shown once. Read-outs that look alike come from different tables or passages of the source.
Legend:
bovine factor Xa = target: T1, bovine factor Xa (Bos taurus, UniProt P00743); assay: Protease inhibitory assay, chromogenic substrate S-2222; type: biochemical; conditions: cmpd conc 200 µM; for vinit: replicate values; for Ki: FactorXa, one of two values averaged in Supplementary Data 1, read-out: Ki
T1 construct: bovine factor Xa, Chromogenix, 2 nkat/mL; purchased Chromogenix

human thrombin = target: T2, human thrombin (Homo sapiens, UniProt P00734); assay: Protease inhibitory assay, chromogenic substrate S-2238; type: biochemical; conditions: for vinit: replicate values; for Ki: Thrombin, one of two values averaged in Supplementary Data 1, read-out: Ki
T2 construct: human thrombin; purchased Sigma-Aldrich

[1] = FactorXa primary screening, substrate 100 µM
[2] = Thrombin primary screening, substrate 40 µM, cmpd conc 500 µM
[3] = Thrombin Ki determination, substrate 20 µM, cmpd conc 200 µM
[4] = Thrombin Ki determination, substrate 40 µM, cmpd conc 200 µM
[5] = substrate 20 µM, cmpd conc 200 µM
[6] = substrate 40 µM, cmpd conc 200 µM
[7] = FactorXa Ki determination, substrate 100 µM
[8] = FactorXa Ki determination, substrate 200 µM

T1 sequence (P00743 234-492 limits assumed): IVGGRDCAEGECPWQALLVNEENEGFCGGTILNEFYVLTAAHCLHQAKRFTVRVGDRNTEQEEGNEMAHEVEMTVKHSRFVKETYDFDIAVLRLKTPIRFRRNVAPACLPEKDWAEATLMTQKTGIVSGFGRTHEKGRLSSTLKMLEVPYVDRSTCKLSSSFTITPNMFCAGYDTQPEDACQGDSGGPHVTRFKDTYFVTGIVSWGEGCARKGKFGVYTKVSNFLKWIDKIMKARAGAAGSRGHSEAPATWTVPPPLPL
T1 sequence (P00743 41-180 partner limits assumed): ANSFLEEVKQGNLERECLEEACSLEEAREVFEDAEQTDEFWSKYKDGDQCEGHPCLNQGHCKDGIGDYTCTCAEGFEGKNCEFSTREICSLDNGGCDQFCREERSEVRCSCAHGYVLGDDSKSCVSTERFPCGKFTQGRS

## O=C(O)CC1CCC(=O)N1 (centres unmarked) [SX-H2]
Bovine factor Xa; [1]
  V0 / Vi: 1.01
  vinit: 17.5 and 16.3
Human thrombin; [2]
  V0 / Vi: 1.12
  vinit: 30.691 and 28

## Nc1nnc2ccccn12 [SX-A5]
Bovine factor Xa; [1]
  V0 / Vi: 0.96
  vinit: 17.929
Human thrombin; [2]
  V0 / Vi: 0.99
  vinit: 30.873 and 29.418

## COc1ccccc1C1CCNCC1 [SX-A11]
Bovine factor Xa; [1]
  V0 / Vi: 0.86
  vinit: 16.916 and 16.512
Human thrombin; [2]
  V0 / Vi: 0.93
  vinit: 35.636 and 31.927

## NCC1(c2ccccc2)CCOCC1 [SX-F10]
Bovine factor Xa; [1]
  V0 / Vi: 0.94
  vinit: 14.6 and 16.3
Human thrombin; [2]
  V0 / Vi: 0.89
  vinit: 36.218 and 34.182

## N#CCCN1CCc2ccccc21 [SX-F4]
Bovine factor Xa; [1]
  V0 / Vi: 1.01
  vinit: 16.857 and 17.357
Human thrombin; [2]
  V0 / Vi: 1.01
  vinit: 31.2 and 28.109

## N#Cc1ccc2ncsc2c1 [SX-C12]
Bovine factor Xa; [1]
  V0 / Vi: 1.17
  vinit: 10.6 and 14
Human thrombin; [2]
  V0 / Vi: 0.98
  vinit: 31.855 and 32.109

## CCc1nccn1CC(=O)O [SX-G11]
Bovine factor Xa; [1]
  V0 / Vi: 1.08
  vinit: 16.214 and 15.4
Human thrombin; [2]
  V0 / Vi: 1.02
  vinit: 32.764 and 31.636

## Cc1cnc(C(F)(F)F)cn1 [SX-B9]
Bovine factor Xa; [1]
  V0 / Vi: 0.98
  vinit: 18.8 and 17.6
Human thrombin; [2]
  V0 / Vi: 1.01
  vinit: 31.164 and 30.509

## O=c1[nH]ncc2c1oc1ccccc12 [SX-B6]
Bovine factor Xa; [1]
  V0 / Vi: 1.00
  vinit: 17.214 and 17.071
Human thrombin; [2]
  V0 / Vi: 1.05
  vinit: 28.582 and 28.145

## c1ccc2sc(N3CCNCC3)nc2c1 [SX-G5]
Bovine factor Xa; [1]
  V0 / Vi: 1.01
  vinit: 16.1 and 17.4
Human thrombin; [2]
  V0 / Vi: 1.04
  vinit: 31.164 and 32.073

## O=C(NC1CC1)c1ccccc1O [SX-G4]
Bovine factor Xa; [1]
  V0 / Vi: 0.96
  vinit: 17.5 and 17.8
Human thrombin; [2]
  V0 / Vi: 1.01
  vinit: 31.745 and 33.345

## COC(=O)c1c(C)nc(C2CC2)[nH]c1=O [SX-F1]
Bovine factor Xa; [1]
  V0 / Vi: 0.96
  vinit: 17.6 and 18.945
Human thrombin; [2]
  V0 / Vi: 1.06
  vinit: 25.964 and 29.418

## c1cnc2c(c1)NCCC2 [SX-E7]
Bovine factor Xa; [1]
  V0 / Vi: 0.98
  vinit: 18.836 and 17.745
Human thrombin; [2]
  V0 / Vi: 0.93
  vinit: 33.927 and 32.545

## Cc1cc(C)c2c(=O)[nH]n(C)c2n1 [SX-F12]
Bovine factor Xa; [1]
  V0 / Vi: 1.09
  vinit: 11.4 and 15
Human thrombin; [2]
  V0 / Vi: 0.97
  vinit: 31.745 and 32.764

## O=C(c1ccccc1)N1CCC(CO)CC1 [SX-H9]
Bovine factor Xa; [1]
  V0 / Vi: 0.93
  vinit: 17.7 and 16.5
Human thrombin; [2]
  V0 / Vi: 1.03
  vinit: 31.714 and 29.571

## CCN(CC)c1cccc(C)c1 [SX-E4]
Bovine factor Xa; [1]
  V0 / Vi: 0.95
  vinit: 17.571 and 18.5
Human thrombin; [2]
  V0 / Vi: 0.95
  vinit: 31.418 and 31.2

## Cc1nc(-c2ccccc2)cs1 [SX-A7]
Bovine factor Xa; [1]
  V0 / Vi: 0.98
  vinit: 17.782 and 18.8
Human thrombin; [2]
  V0 / Vi: 0.97
  vinit: 32.618 and 31.345

## CC(=O)c1ccc2c(c1)CCCN2 [SX-C7]
Bovine factor Xa; [1]
  V0 / Vi: 1.02
  vinit: 17.382 and 17.673
Human thrombin; [2]
  V0 / Vi: 0.96
  vinit: 32.218 and 32.109

## N#Cc1ccc(C(=O)N2CCOCC2)cc1 [SX-E10]
Bovine factor Xa; [1]
  V0 / Vi: 1.00
  vinit: 14.2 and 14.8
Human thrombin; [2]
  V0 / Vi: 1.00
  vinit: 33.091 and 29.782

## O=c1[nH]c2c(s1)CCC2 [SX-C10]
Bovine factor Xa; [1]
  V0 / Vi: 1.04
  vinit: 13.7 and 14.2
Human thrombin; [2]
  V0 / Vi: 0.94
  vinit: 33.418 and 33.127

## CC1CCc2sc(C(=O)O)cc2C1 (centres unmarked) [SX-D9]
Bovine factor Xa; [1]
  V0 / Vi: 1.04
  vinit: 17.818 and 16.655
Human thrombin; [3]
  V0 / Vi: 1.41
  vinit, avrg.: 18.876
  vinit: 19.443 and 19.03 and 18.15
Human thrombin; [4]
  V0 / Vi: 1.17
  vinit, avrg.: 28.950
  vinit: 33.096 and 26.331 and 27.42
Human thrombin; [2]
  V0 / Vi: 1.40
  vinit: 23.527 and 20.764
Human thrombin; [5]
  Ki: 57 µM
Human thrombin; [6]
  Ki: 73 µM

## O=C1CCCc2occc21 [SX-B3]
Bovine factor Xa; [1]
  V0 / Vi: 1.01
  vinit: 17.709 and 16.909
Human thrombin; [2]
  V0 / Vi: 0.97
  vinit: 30.582 and 29.818

## Clc1ccc2nnnn2n1 [SX-E6]
Bovine factor Xa; [1]
  V0 / Vi: 1.12
  vinit: 15.357 and 15.429
Human thrombin; [2]
  V0 / Vi: 0.99
  vinit: 32.073 and 28.473

## Cn1c(CO)nc2ccccc21 [SX-G2]
Bovine factor Xa; [1]
  V0 / Vi: 0.96
  vinit: 18 and 17.3
Human thrombin; [2]
  V0 / Vi: 1.00
  vinit: 32.764 and 33.018

## NC1CCc2ccccc21 (centres unmarked) [SX-B4]
Bovine factor Xa; [1]
  V0 / Vi: 0.93
  vinit: 18.714 and 18.143
Human thrombin; [2]
  V0 / Vi: 0.96
  vinit: 31.2 and 30.982

## CS(=O)(=O)c1ccc(N2CCNCC2)cc1 [SX-B1]
Bovine factor Xa; [1]
  vinit: 18 and 19.091
Human thrombin; [2]
  vinit: 29.818 and 32

## O=C(O)c1ccc(CN2CCOCC2)cc1 [SX-H1]
Bovine factor Xa; [1]
  V0 / Vi: 0.98
  vinit: 17.6 and 17
Human thrombin; [2]
  V0 / Vi: 1.07
  vinit: 31.127 and 30.255

## O=C1CNCCN1c1ccccc1 [SX-B2]
Bovine factor Xa; [1]
  V0 / Vi: 1.00
  vinit: 17.273 and 17.782
Human thrombin; [2]
  V0 / Vi: 1.05
  vinit: 28.909 and 27.2

## COc1ccccc1CC1CCNCC1.Cl [SX-B12]
Bovine factor Xa; [7]
  V0 / Vi: 1.28
  vinit, avrg.: 12.727
  vinit: 13.1265 and 12.596 and 12.46
Bovine factor Xa; [8]
  V0 / Vi: 1.25
  vinit: 26.514 and 31.33 and 29.51
Bovine factor Xa; [1]
  V0 / Vi: 1.35
  vinit: 10.3 and 11.164
Bovine factor Xa; substrate 100 µM
  Ki: 445 µM
Bovine factor Xa; substrate 200 µM
  Ki: 357 µM
Human thrombin; [2]
  V0 / Vi: 0.97
  vinit: 32.327 and 32.218

## Nc1nnc(-c2cccs2)[nH]1 [SX-D3]
Bovine factor Xa; [1]
  V0 / Vi: 1.09
  vinit: 16.545 and 15.782
Human thrombin; [3]
  V0 / Vi: 1.11
  vinit, avrg.: 23.831
  vinit: 23.075 and 23.01 and 25.41
Human thrombin; [4]
  V0 / Vi: 1.08
  vinit, avrg.: 31.345
  vinit: 30.327 and 31.656 and 32.05
Human thrombin; [2]
  V0 / Vi: 1.08
  vinit: 26.655 and 27.673
Human thrombin; [5]
  Ki: 204 µM
Human thrombin; [6]
  Ki: 158 µM

## c1cnc2ncccc2c1 [SX-A3]
Bovine factor Xa; [1]
  V0 / Vi: 0.96
  vinit: 18.873 and 17.673
Human thrombin; [2]
  V0 / Vi: 1.00
  vinit: 28.545 and 30.364

## O=C(c1ccccc1F)N1CCNCC1 [SX-E12]
Bovine factor Xa; [7]
  V0 / Vi: 1.26
  vinit, avrg.: 12.944
  vinit: 12.386 and 12.902 and 13.544
Bovine factor Xa; [8]
  V0 / Vi: 1.17
  vinit: 30.668 and 30.24 and 32.808
Bovine factor Xa; [1]
  V0 / Vi: 1.28
  vinit: 11.3
Bovine factor Xa; substrate 100 µM
  Ki: 482 µM
Bovine factor Xa; substrate 200 µM
  Ki: 538 µM
Human thrombin; [2]
  V0 / Vi: 0.98
  vinit: 32.036 and 31.782

## N[C@H]1c2ccccc2C[C@H]1CO [SX-B5]
Bovine factor Xa; [1]
  V0 / Vi: 0.91
  vinit: 18.071 and 19.643
Human thrombin; [2]
  V0 / Vi: 0.98
  vinit: 32.873 and 28.182

## Oc1ccc(-n2cncn2)cc1 [SX-H5]
Bovine factor Xa; [1]
  V0 / Vi: 1.05
  vinit: 16 and 16.3
Human thrombin; [2]
  V0 / Vi: 1.00
  vinit: 33.091 and 32.545

Source: paper PMC8159961, “Exploring protein hotspots by optimized fragment pharmacophores” (Nature Communications, 2021)
